According to PubChem BioAssay AID220 (DTP/NCI, 2004):
Values joined by “and” are separate entries in the source; they are usually repeats but may differ in a detail not shown here. Identical values can stand only once. Results filed as inconclusive are left out.

Tested on: CD8F1 mice, subcutaneous mammary adenocarcinoma, T/C%
Experiment: NCI In Vivo Anticancer Drug Screen. Data for tumor model Mammary Adenocarcinoma CD8F1 (subcutaneous) in CD8F1
Conditions: higher = larger tumour
How it was run: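 Antitumor activity is assessed in transplantable-tumor mice by comparing the treated group with a vehicle-treated control group. Survival or tumor size serves as the measure, reported as T divided by C.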

[1] = endpoint: median tumor weight (est.), dose: 100.0 mg/kg/injection, schedule: Q07DX005 (ip), vehicle: saline
[2] = endpoint: median tumor weight (est.), dose: 200.0 mg/kg/injection, schedule: Q07DX005 (ip), vehicle: saline

## CC(C)[C@](O)(C(=O)OCC1=CC[N+]2([O-])CC[C@@H](O)[C@@H]12)[C@H](C)O (stereo not given in full)
endpoint: median tumor weight (est.), dose: 25.0 mg/kg/injection, schedule: Q07DX005 (ip), vehicle: water
  T/C: 81 % of control
endpoint: median tumor weight (est.), dose: 50.0 mg/kg/injection, schedule: Q07DX005 (ip), vehicle: water
  T/C: 67 % of control
endpoint: median tumor weight (est.), dose: 100.0 mg/kg/injection, schedule: Q07DX005 (ip), vehicle: water
  T/C: 42 % of control
endpoint: median tumor weight (est.), dose: 200.0 mg/kg/injection, schedule: Q07DX005 (ip), vehicle: water
  T/C: 79 % of control
endpoint: median tumor weight (est.), dose: 400.0 mg/kg/injection, schedule: Q07DX005 (ip), vehicle: water
  T/C: 59 % of control

## COC(=O)Nc1cn2cc(C(=O)c3cccs3)ccc2n1
endpoint: median tumor weight change, dose: 62.5 mg/kg/injection, schedule: Q01DX001 (ip), vehicle: Klucel (hydroxypropylcellulose) (HPC)
  T/C: 99 % of control
endpoint: median tumor weight change, dose: 125.0 mg/kg/injection, schedule: Q01DX001 (ip), vehicle: Klucel (hydroxypropylcellulose) (HPC)
  T/C: 71 % of control
endpoint: median tumor weight change, dose: 250.0 mg/kg/injection, schedule: Q01DX001 (ip), vehicle: Klucel (hydroxypropylcellulose) (HPC)
  T/C: 69 % of control

## Clc1ccc2nnnn2n1
endpoint: median tumor weight change, dose: 125.0 mg/kg/injection, schedule: Q01DX001 (ip), vehicle: saline with Tween-80
  T/C: 49 % of control
endpoint: median tumor weight change, dose: 250.0 mg/kg/injection, schedule: Q01DX001 (ip), vehicle: saline with Tween-80
  T/C: 61 % of control

## c1ccc(SSc2ccccn2)nc1
endpoint: mean tumor weight, dose: 25.0 mg/kg/injection, schedule: Q07DX006 (ip), vehicle: saline
  T/C: 123 % of control
endpoint: mean tumor weight, dose: 100.0 mg/kg/injection, schedule: Q07DX006 (ip), vehicle: saline
  T/C: 159 % of control

## CCCCNCCCNCCCNC(=O)c1csc(-c2csc(CCNC(=O)C(NC(=O)C(C)C(O)C(C)NC(=O)C(NC(=O)c3nc(C(CC(N)=O)NCC(N)C(N)=O)nc(N)c3C)C(OC3OC(CO)C(O)C(O)C3OC3OC(CO)C(O)C(OC(N)=O)C3O)c3cnc[nH]3)C(C)O)n2)n1 (stereo not given)
endpoint: median tumor weight (est.), dose: 4.0 mg/kg/injection, schedule: Q07DX005 (ip), vehicle: saline
  T/C: 16 % of control
endpoint: median tumor weight (est.), dose: 8.0 mg/kg/injection, schedule: Q07DX005 (ip), vehicle: saline
  T/C: 10 % of control
endpoint: median tumor weight (est.), dose: 16.0 mg/kg/injection, schedule: Q07DX005 (ip), vehicle: saline
  T/C: 16 % of control

## Nc1n[nH]c(N)n1
endpoint: mean tumor weight, dose: 25.0 mg/kg/injection, schedule: Q01DX009 (ip), vehicle: saline
  T/C: 153 % of control
endpoint: mean tumor weight, dose: 100.0 mg/kg/injection, schedule: Q01DX009 (ip), vehicle: saline
  T/C: 207 % of control
[1]
  T/C: 50 % of control and 67 % of control
[2]
  T/C: 58 % of control and 68 % of control
endpoint: median tumor weight (est.), dose: 1600.0 mg/kg/injection, schedule: Q07DX005 (ip), vehicle: saline
  T/C: 27 % of control and 51 % of control
endpoint: median tumor weight change, dose: 250.0 mg/kg/injection, schedule: Q01DX001 (ip), vehicle: saline
  T/C: 75 % of control
endpoint: median tumor weight change, dose: 500.0 mg/kg/injection, schedule: Q01DX001 (ip), vehicle: saline
  T/C: 121 % of control
endpoint: median tumor weight change, dose: 1000.0 mg/kg/injection, schedule: Q01DX001 (ip), vehicle: saline
  T/C: 120 % of control
endpoint: median tumor weight change, dose: 2000.0 mg/kg/injection, schedule: Q01DX001 (ip), vehicle: saline
  T/C: 174 % of control

## Clc1ccc(CN2COc3c(ccc4cccnc34)C2)cc1Cl
endpoint: median tumor weight (est.), dose: 25.0 mg/kg/injection, schedule: Q07DX005 (ip), vehicle: saline with Tween-80
  T/C: 113 % of control
endpoint: median tumor weight (est.), dose: 50.0 mg/kg/injection, schedule: Q07DX005 (ip), vehicle: saline with Tween-80
  T/C: 65 % of control
endpoint: median tumor weight (est.), dose: 200.0 mg/kg/injection, schedule: Q07DX005 (ip), vehicle: saline with Tween-80
  T/C: 66 % of control
endpoint: median tumor weight (est.), dose: 400.0 mg/kg/injection, schedule: Q07DX005 (ip), vehicle: saline with Tween-80
  T/C: 96 % of control

## O=C(O)CP(=O)(O)O
[1]
  T/C: 90 % of control
[2]
  T/C: 97 % of control
endpoint: median tumor weight (est.), dose: 400.0 mg/kg/injection, schedule: Q07DX005 (ip), vehicle: saline
  T/C: 57 % of control
endpoint: median tumor weight (est.), dose: 800.0 mg/kg/injection, schedule: Q07DX005 (ip), vehicle: saline
  T/C: 79 % of control

## O=C1NCCN1c1ncc([N+](=O)[O-])s1
endpoint: mean tumor weight, dose: 100.0 mg/kg/injection, schedule: Q07DX005 (ip), vehicle: saline
  T/C: 121 % of control
endpoint: mean tumor weight, dose: 200.0 mg/kg/injection, schedule: Q07DX005 (ip), vehicle: saline
  T/C: 89 % of control
endpoint: mean tumor weight, dose: 400.0 mg/kg/injection, schedule: Q07DX005 (ip), vehicle: saline
  T/C: 101 % of control

## CC(C)(C)c1ccc(CN2CCN(C(c3ccccc3)c3ccc(Cl)cc3)CC2)cc1 (stereo not given)
endpoint: median tumor weight change, dose: 8.0 mg/kg/injection, schedule: Q01DX001 (ip), vehicle: Klucel (hydroxypropylcellulose) (HPC)
  T/C: 98 % of control
endpoint: median tumor weight change, dose: 16.0 mg/kg/injection, schedule: Q01DX001 (ip), vehicle: Klucel (hydroxypropylcellulose) (HPC)
  T/C: 96 % of control
endpoint: median tumor weight change, dose: 32.0 mg/kg/injection, schedule: Q01DX001 (ip), vehicle: Klucel (hydroxypropylcellulose) (HPC)
  T/C: 101 % of control
endpoint: median tumor weight change, dose: 64.0 mg/kg/injection, schedule: Q01DX001 (ip), vehicle: Klucel (hydroxypropylcellulose) (HPC)
  T/C: 108 % of control
endpoint: median tumor weight change, dose: 128.0 mg/kg/injection, schedule: Q01DX001 (ip), vehicle: Klucel (hydroxypropylcellulose) (HPC)
  T/C: 55 % of control
endpoint: median tumor weight change, dose: 256.0 mg/kg/injection, schedule: Q01DX001 (ip), vehicle: Klucel (hydroxypropylcellulose) (HPC)
  T/C: 84 % of control

## COc1ccc(OC)c(Cc2cnc3nc(N)nc(N)c3c2C)c1
endpoint: median tumor weight change, dose: 31.25 mg/kg/injection, schedule: Q01DX001 (ip), vehicle: other
  T/C: 47 % of control
endpoint: median tumor weight change, dose: 62.5 mg/kg/injection, schedule: Q01DX001 (ip), vehicle: other
  T/C: 64 % of control

## CC1=C2CC(C)(C)/C=C\C(=O)/C(C)=C\C3=C[C@H](C)C[C@]3(O2)C1=O
endpoint: median tumor weight (est.), dose: 1.5 mg/kg/injection, schedule: Q07DX005 (ip), vehicle: Klucel (hydroxypropylcellulose) (HPC)
  T/C: 78 % of control
endpoint: median tumor weight (est.), dose: 1.5 mg/kg/injection, schedule: Q07DX005 (ip), vehicle: saline
  T/C: 94 % of control
endpoint: median tumor weight (est.), dose: 3.0 mg/kg/injection, schedule: Q07DX005 (ip), vehicle: Klucel (hydroxypropylcellulose) (HPC)
  T/C: 212 % of control
endpoint: median tumor weight (est.), dose: 6.0 mg/kg/injection, schedule: Q07DX005 (ip), vehicle: Klucel (hydroxypropylcellulose) (HPC)
  T/C: 174 % of control
endpoint: median tumor weight (est.), dose: 6.0 mg/kg/injection, schedule: Q07DX005 (ip), vehicle: saline
  T/C: 112 % of control
endpoint: median tumor weight (est.), dose: 12.0 mg/kg/injection, schedule: Q07DX005 (ip), vehicle: Klucel (hydroxypropylcellulose) (HPC)
  T/C: 80 % of control
endpoint: median tumor weight (est.), dose: 12.0 mg/kg/injection, schedule: Q07DX005 (ip), vehicle: saline
  T/C: 88 % of control
endpoint: median tumor weight (est.), dose: 24.0 mg/kg/injection, schedule: Q07DX005 (ip), vehicle: Klucel (hydroxypropylcellulose) (HPC)
  T/C: 466 % of control
endpoint: median tumor weight (est.), dose: 48.0 mg/kg/injection, schedule: Q07DX005 (ip), vehicle: saline
  T/C: 44 % of control

## Nc1ncnc2c1ncn2C1C=C(CO)C(O)C1O (stereo not given)
endpoint: median tumor weight change, dose: 2.5 mg/kg/injection, schedule: Q01DX001 (ip), vehicle: saline
  T/C: 63 % of control
endpoint: median tumor weight change, dose: 2.5 mg/kg/injection, schedule: Q01DX001 (ip), vehicle: suspension in saline
  T/C: 113 % of control
endpoint: median tumor weight change, dose: 5.0 mg/kg/injection, schedule: Q01DX001 (ip), vehicle: saline
  T/C: 107 % of control
endpoint: median tumor weight change, dose: 5.0 mg/kg/injection, schedule: Q01DX001 (ip), vehicle: suspension in saline
  T/C: 115 % of control
endpoint: median tumor weight change, dose: 10.0 mg/kg/injection, schedule: Q01DX001 (ip), vehicle: saline
  T/C: 100 % of control
endpoint: median tumor weight change, dose: 20.0 mg/kg/injection, schedule: Q01DX001 (ip), vehicle: saline
  T/C: 86 % of control
endpoint: median tumor weight change, dose: 20.0 mg/kg/injection, schedule: Q01DX001 (ip), vehicle: suspension in saline
  T/C: 39 % of control
endpoint: median tumor weight change, dose: 40.0 mg/kg/injection, schedule: Q01DX001 (ip), vehicle: saline
  T/C: 40 % of control

## O=C(O)C(O)C(O)C1[O][Sb][O]C1C(=O)O (stereo not given)
endpoint: median tumor weight change, dose: 31.0 mg/kg/injection, schedule: Q01DX001 (ip), vehicle: saline
  T/C: 115 % of control
endpoint: median tumor weight change, dose: 62.0 mg/kg/injection, schedule: Q01DX001 (ip), vehicle: saline
  T/C: 93 % of control

## CC[C@]1(O)C[C@H](OC2CC(N(C)C)C(OC3CC(O)C(O)C(C)O3)C(C)O2)c2c(cc3c(c2O)C(=O)c2c(O)ccc(O)c2C3=O)[C@H]1C(=O)OC (stereo not given in full)
endpoint: median tumor weight (est.), dose: 0.5 mg/kg/injection, schedule: Q07DX005 (ip), vehicle: Klucel (hydroxypropylcellulose) (HPC)
  T/C: 170 % of control
endpoint: median tumor weight (est.), dose: 1.0 mg/kg/injection, schedule: Q07DX005 (ip), vehicle: Klucel (hydroxypropylcellulose) (HPC)
  T/C: 204 % of control
endpoint: median tumor weight (est.), dose: 4.0 mg/kg/injection, schedule: Q07DX005 (ip), vehicle: Klucel (hydroxypropylcellulose) (HPC)
  T/C: 63 % of control
